From US20070203066A1, “Compositions and methods for inhibiting cellular proliferation” (priority 2005, published 2007)
Non-standard residues stand in square brackets, D forms with d. Primed or numbered codes have the meaning given here. No end group written: not given here. Ida = iminodiacetic acid linker, its two carboxyls bind the Lys side-chain amines of two peptides, giving a homodimer; Ida(3) = iminodiacetic acid linker, Lys side-chain amines bound to its two carboxyl groups; Ida(4) = iminodiacetic acid linker (dimerization linker bound to lysine side chain); Aib = CC(C)(N)C(=O)O; Ahx = NCCCCCC(=O)O

These molecules were tested on bFGF-induced angiogenesis in Matrigel plugs (assay: Murine Matrigel plug angiogenesis assay). Conditions: Pegylated peptide dimers, i.p. 1.4 mg/d, 10-12 days of treatment, hemoglobin in plugs vs +bFGF/Buffer control.
Format: in vivo, C57B1/6 mice
Procedure: In order to assess the effect of the peptides in this invention on angiogenesis, an additional assay was used to assess antiangiogenic activity.
Briefly, Matrigel (BD Biosciences, San Jose, Calif.) is mixed with 0.5 μg/ml of bFGF. 0.5 ml of this Matrigel/bFGF mixture is then injected subcutaneously on the ventral abdominal surface at the level of the xiphoid process of C57B1/6 mice. Matrigel plugs, injected in absence of bFGF addition, are used as negative controls. Treatment with various peptides is initiated 12-18 hours later. Animals are treated by i.p. administration of peptides, dosed at 0.2mg/d of peptide dimers, and 1.4 mg/d of Pegylated peptide dimers. After 10-12 days of treatment, animals are euthanized, and the Matrigel plugs are surgically removed, and cleaned of mouse tissue, fascia, and fat. […] After centrifugation, supernatant for each plug is assayed for the presence of Hemoglobin using a Serum Hemoglobin analysis kit (Sigma Diagnostics, St. Louis, Mo.). Angiogenesis is defined as the fold increase of hemoglobin in the buffer control treated mouse Matrigel plugs, above the amount of hemoglobin in negative (−bFGF) control Matrigel plugs. For experimental peptide treated animals, the percent inhibition is defined as the inhibition seen when comparing positive control plugs (+bFGF/ Buffer treatment) with peptide treated plugs (+bFGF/ Peptide treatment).

Row | Molecule | Matrigel Model % Inhibition [%]
1 | 376 (Ac-ARRRRQRVAIYFK-NH2; not fully specified (residue 13); also: homodimer via Ida-PEG 30 kDa linker on Lys13 side chain) [compound 376] | 42.0

Same assay, conditions: peptide dimers, i.p. 0.2mg/d, 10-12 days of treatment, hemoglobin in plugs vs +bFGF/Buffer control

Row | Molecule | Matrigel Model % Inhibition [%]
2 | 267 (Ac-RRRRRQAVAIYFK-NH2; not fully specified (residue 13); also: homodimer via Ida linker on Lys13 side chain) [compound 267] | 36.0
3 | 331 (Ac-ARRRRQRVAIYFK-NH2; not fully specified (residue 13); also: homodimer via Lys13 side chain, GP3 linker) [compound 331] | 44.0
4 | 167 (Ac-RRRRRQRVRIIFK; not fully specified (C-terminus); also: homodimer via Ida linker on Lys13 side chains) [compound 167] | 42.0
5 | 279 (Ac-RRRRRQRVRIYFK-NH2; not fully specified (residue 13); also: homodimer via Ida linker on Lys13 side chain) [compound 279] | 56.0

The molecules below were run on HUVECs (assay: not given). Conditions: 48 h.
Format: cell-based
Procedure, shortened: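 Proliferation read-out: BrdU incorporation after 48-hour culture (37 ° C, 5% CO2) with graded peptide doses. Cells were in EBM with 2% FCS at 5,000 per well, driven by VEGF (5 ng/ml) or bFGF (10 ng/ml), added after ≥12-hour attachment.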

Row | Molecule | IC50 [µM]
6 | CC[C@H](C)[C@H](NC(=O)[C@H](C)NC(=O)[C@@H](NC(=O)[C@H](C)NC(=O)[C@H](CCC(N)=O)NC(=O)[C@H](CCCNC(=N)N)NC(=O)[C@H](CCCNC(=N)N)NC(=O)[C@H](CCCNC(=N)N)NC(=O)[C@H](CCCNC(=N)N)NC(=O)[C@H](CCCNC(=N)N)NC(C)=O)C(C)C)C(=O)N[C@@H](Cc1ccc(O)cc1)C(=O)N[C@@H](Cc1ccccc1)C(=O)N[C@@H](CCCCNC(=O)CN(CC(=O)NCCCC[C@H](NC(=O)[C@H](Cc1ccccc1)NC(=O)[C@H](Cc1ccc(O)cc1)NC(=O)[C@@H](NC(=O)[C@H](C)NC(=O)[C@@H](NC(=O)[C@H](C)NC(=O)[C@H](CCC(N)=O)NC(=O)[C@H](CCCNC(=N)N)NC(=O)[C@H](CCCNC(=N)N)NC(=O)[C@H](CCCNC(=N)N)NC(=O)[C@H](CCCNC(=N)N)NC(=O)[C@H](CCCNC(=N)N)NC(C)=O)C(C)C)[C@@H](C)CC)C(N)=O)C(=O)CCNC(=O)OC(C)(C)C)C(N)=O [Peptide 267] | < 10

Same assay, conditions: HUVEC proliferation, bFGF at 10 ng/ml or VEGF at 5 ng/ml, 48 hours, BrdU incorporation; read-out: IC50 on HUVECs

Row | Molecule | IC50 [µM]
7 | 267 (Ac-RRRRRQAVAIYFK-NH2; not fully specified (residue 13); also: homodimer via Ida linker on Lys13 side chain) [compound 267] | < 10
8 | 331 (Ac-ARRRRQRVAIYFK-NH2; not fully specified (residue 13); also: homodimer via Lys13 side chain, GP3 linker) [compound 331] | < 10
9 | 376 (Ac-ARRRRQRVAIYFK-NH2; not fully specified (residue 13); also: homodimer via Ida-PEG 30 kDa linker on Lys13 side chain) [compound 376] | < 10
10 | 167 (Ac-RRRRRQRVRIIFK; not fully specified (C-terminus); also: homodimer via Ida linker on Lys13 side chains) [compound 167] | < 10
11 | 279 (Ac-RRRRRQRVRIYFK-NH2; not fully specified (residue 13); also: homodimer via Ida linker on Lys13 side chain) [compound 279] | < 10
12 | 396 (Ac-ARRRRQAVWIYFK; not fully specified (residue 13, C-terminus); also: homodimer of residues 1-13 via Ida linker at Lys13 side chain) [compound 396] | < 10
13 | 210 (Ac-RRRRAQRVAIIF; also: dimer: Phe C-termini joined via Lys linker) [compound 210] | < 10
14 | 345 (Ac-ARRRRQRVAIYWK-NH2; not fully specified (residue 13); also: homodimer of residues 1-13 via Ida linker on Lys13 side chain) [compound 345] | < 10
15 | 410 (Ac-SRRRRQAVAIYFK; not fully specified (residue 13, C-terminus); also: homodimer via Ida linker on Lys side chains, linker at 13 via Ida, other end not in the chain) [compound 410] | < 10
16 | 308 (Ac-RRRRRQAVK(Ida)IIFV; also: homodimer via Ida linker on Lys9 side chain) [compound 308] | < 10
17 | 298 (Ac-ARRRRQRVA[Aib]FK-NH2; not fully specified (residue 12); also: homodimer via Ida linker on Lys12 side chain) [compound 298] | > 30
18 | 316 (Ac-ARRRRQAVHIYFK(Ida)-NH2; also: homodimer via Ida linker on Lys13 side chain) [compound 316] | < 10
19 | RKRKKQRVKIAYEEIFVKNM [compound 4] | 10 to 30
20 | 503 (Ac-PRRLRQAVAIYFK; not fully specified (residue 13, C-terminus); also: homodimer via Ida linker on Lys13 side chain) [compound 503] | < 10
21 | 409 (Ac-QRRRRQAVAIYFK; not fully specified (residue 13, C-terminus); also: homodimer via Ida linker on Lys side chains, linker at 13 via Ida, other end not in the chain) [compound 409] | < 10
22 | 266 (Ac-RRRRRQAVAIWFK; not fully specified (C-terminus); also: homodimer: side chain of Lys13 bound to an Ida linker) [compound 266] | < 10
23 | 426 (Ac-ARRRRQYVAIYFK; not fully specified (residue 13, C-terminus); also: homodimer of residues 1-13 via Ida linker on Lys13 side chain) [compound 426] | < 10
24 | KTKAARKKQRVKIAYEEIFVQNM [compound 55] | > 30

Row | Molecule | IC50 [µM]
25 | 281 (Ac-RRRRHQAVAIYFK-NH2; not fully specified (residue 13); also: homodimer via Ida linker on Lys13 side chain) [compound 281] | < 10
26 | 338 (Ac-RHRRRQHVHIYFK(Ida(3))-NH2; also: homodimer via Lys13 side chain, Ida linker (Ida amino group Boc)) [compound 338] | < 10
27 | 430 (Ac-ARRRRQAVAIK(Ida(4))YF; also: homodimer via Ida linker at K11) [compound 430] | < 10
28 | 28 (Ac-RTRRRRRRQRVRIAYEEIFVRNM[Ahx]K-NH2; not fully specified (residue 25); also: homodimer via Ida linker on Lys25 side chain, Ida amino group carries Boc) [compound 28] | < 10
29 | KRKKQRVKIAYEEIFV [compound 63] | < 10
30 | 233 (XRRRRQHVRIIF; Xaa = Acylated Histidine; Dimeric peptide wherein the C terminus of Phe in position 12 of one peptide chain is covalently bound to one of the amino groups of a Lysine linker and Phe of the remaining peptide chain is covalently bound to the other amino group of the Lysine linker.) [compound 233] | < 10
31 | 455 (Ac-TRRRRQAVAIVFK-NH2; not fully specified (residue 13); also: homodimer via Ida linker at K13) [compound 455] | < 10
32 | 341 (Ac-RRHRHQRVHIYFK(Ida(3))-NH2; also: homodimer via Lys13 side chain, Ida linker (Ida amino group Boc)) [compound 341] | < 10
33 | 203 (Ac-RRARAQRVRIIF; also: dimer: C-terminal Phe bound to an amino group of a Lys linker, 2 chains per Lys) [compound 203] | < 10
34 | 382 (Ac-ARRRRQRVAIVFK-NH2; not fully specified (residue 13); also: homodimer via Ida linker on Lys13 side chain, Ida amine Boc) [compound 382] | < 10
35 | RKKQRVKIAYEEIFV [compound 64] | 10 to 30
36 | RKRKKQRVKIAYEEIFVQNM [compound 21] | > 30
37 | 403 (Ac-GRRRRQAVAIYFK(Ida(3))-NH2; also: homodimer via Ida linker on Lys13 side chain, Boc on Ida amine) [compound 403] | < 10
38 | 443 (Ac-RRRRWQAVAIYFK(Ida(4)); not fully specified (C-terminus); also: homodimer via Ida linker at K13) [compound 443] | < 10
39 | 492 (Ac-ARRRNQSVAIKF; not fully specified (residue 11); also: homodimer: Lys11 side chain bound to Ida linker (Boc on Ida N)) [compound 492] | 10 to 30
40 | 234 (XRRRRQRVHIIF; Xaa = Acylated Histidine; Dimeric peptide wherein the C terminus of Phe in position 12 of one peptide chain is covalently bound to one of the amino groups of a Lysine linker and Phe of the remaining peptide chain is covalently bound to the other amino group of the Lysine linker.) [compound 234] | < 10
41 | 439 (Ac-RRRRPQAVAIYFK(Ida(4)); not fully specified (C-terminus); also: homodimer via Ida linker at K13) [compound 439] | < 10
